According to patent publication US8937050B2, “Methods and compositions for treatment of autism” (The Johns Hopkins University, priority 2011, dated 2015):

What was measured:
FL-SMN mRNA = assay: RT-PCR of FL-SMN and total SMN mRNA in spinal muscular atrophy fibroblasts; format: cell-based, human; settings: effect of co-treatment with stress pathway inhibitor; FIG. 8B
Procedure: Following the manufacturer's protocols, DNase I-treated cDNA was synthesized using Superscript III or Thermoscript reverse transcriptase (Invitrogen). PCR reactions were performed in duplicate on the Roche Lightcycler 3.5 (Basel, Switzerland) or the Bio-Rad iCycler (Hercules, Calif.) using Quantitech SYBR green PCR mix (Qiagen, Valencia, Calif.). GeNorm software calculated a normalization factor for each sample using the relative amounts of at least two of the following reference genes, β2-microglobulin, […], actin, and/or eukaryotic elongation factor 1A (Vandesompele et al., 2002). Primers for the various experiments described herein are listed below.
Type I and type III spinal muscular atrophy (SMA I or SMA III) fibroblasts were treated with SFN for the indicated times. The relative fold increase in the ratio of FL-SMN/total SMN transcripts compared with the untreated cell line (normalized to 1) is plotted. Cell lines from left to right are GM09677, GM00232 and 2906. N≧2 independent experiments.
Spinal muscular atrophy fibroblasts were treated with 1.5 mM SFN alone for 51 hr. (SMA I, GM09677) or treated with 0.5 mM SFN for 8 hr. (SMA III, 2906) with or without […] SP600125 (JNK inhibitor), 2.5 mM 3-methyladenine (autophagy inhibitor, APG), […] antimycin A (mitochondrial inhibitor, MITO) or […] sirtinol (SIRT1 inhibitor). The fold increases in FL-SMN expression compared with either GAPDH or total SMN expression and the fold increase in total SMN expression compared with GAPDH expression after SFN treatment is plotted. Untreated values were normalized to 1 and are indicated by the horizontal line. (n=1 per cell line, performed in duplicate)
To determine which stress pathways are necessary for the increase in FL-SMN production, spinal muscular atrophy fibroblasts were co-treated with SFN and either SP600125, an inhibitor of the JNK pathway (Bennett et al., 2001), 3-methyladenine, an inhibitor of the autophagy pathway (Seglen et al., 1982), antimycin A, a mitochondrial inhibitor (Ranganathan et al., 2009), or sirtinol, an inhibitor of SIRT1 activity (Grozinger et al., 2001). […] SIRT1, an NAD+-dependent deacetylase, is known to regulate cellular stress responses, cellular metabolism and cellular survival (Salminen et al., 2009). Specifically, SIRT1 inhibition reduces the induction of HSR genes (Westerheide et al., 2009); SIRT1 activity enhances SOD2 expression (Anastasiou et al., 2006); SIRT1 negatively regulates the mammalian target of rapamycin triggering autophagy (Haigis et al., 2010); and SIRT1 activates mitochondrial biogenesis via the stress-responsive transcription factor PGC1a (Yu et al., 2009). The yeast ortholog Sir2 is necessary for the induction of mitochondrial biogenesis by 4PBA or HU in Saccharomyces cerevisiae (Cha 2010). […] However, SIRT1 can be activated by various post-translational changes. Therefore, the potential involvement of SIRT1 in the therapeutic effects of these drugs by inhibition studies was evaluated.

XALD fibroblasts [1] = assay: Inhibition studies: ATP5B immunofluorescence of drug-induced mitochondrial biogenesis; format: cell-based, human; settings: inhibitor added before 4PBA, HU, TSA or SFN; XALD fibroblasts
Procedure: Performed as described in Watkins et al., 1995 using 4% formaldehyde, 1% Triton X-100, primary antibody anti-ATP5B (Millipore, Billerica, Mass.) or anti-ABCD3 (Invitrogen, Carlsbad, Calif.), and secondary antibody sheep anti-mouse IgG FITC-conjugated (Santa Cruz Biotechnology, Santa Cruz, Calif.) or goat anti-rabbit IgG rhodamine-conjugated (Jackson ImmunoResearch, West Grove, Pa.).
Antimycin A (10 ng/mL), LY294002, PD98059, RO-31-8425, SB203580, SP600125, and L-NAME were obtained from Sigma. Compound C was from EMD Biosciences (Darmstadt, Germany). Human fibroblasts were treated with each inhibitor. Then, 45-75 min later, either 4PBA, HU, TSA, or SFN was added. Cells were stained four to six days after treatment with one of the small molecules. As a control for inhibitors dissolved in DMSO, fibroblasts were treated with an equivalent amount of DMSO in the absence of inhibitor. […]
In FIGS. 2A-B, the JNK inhibitor SP600125 (10 μM+inh) was utilized. […] XALD fibroblasts were treated with each drug for four days with or without SP600125. (400× magnification). […] Normal human fibroblasts were treated with each of the small four molecules with or without SP600125 for six days. Quantitative in-cell western analyses were performed using anti-ATP5B.

K562 cells [2] = assay: Flow cytometric analysis of mitochondrial mass (Mitotracker); format: cell-based, human; settings: FIG. 1C
Procedure: (§1) Fibroblasts (70-95% confluent) were treated with 5 mM 4PBA (1 mM for JNK inhibition studies), 600 μM HU, 200 nM TSA, or 5 μM SFN unless otherwise specified.
(§2) K562 cells were incubated with 50 nM Mitotracker Green FM, 300 nM Mitotracker Deep Red 633 (Invitrogen), or PBS as a negative control for 15 min at 37° C. or stained with anti-Pex14 using Caltag Fix and Perm reagents (Invitrogen) following the manufacturer's instructions. Stained cells were suspended in 0.5 mL of 1% paraformaldehyde/PBS and subjected to flow cytometric analysis (FACScan machine, Becton Dickinson, Franklin Lakes, N.J.).
(§3) K562 cells were treated with SB and HU for four to ten days. […] (n≧3 unless otherwise noted).
To determine whether the induction of mitochondrial biogenesis by SB or HU treatment was necessary for the induction of HbF-producing cell production, K562 cells were treated with SB or HU in the presence or absence of AA. […] After two to four days of drug treatment with or without AA, mitochondrial mass was measured using Mitotracker, a mitochondrial stain. Fold change (drug treated/control) is shown. […] After four days of drug treatment with or without AA, cells were stained with DAF. The relative number of cells producing HbF (DAF stained cells) were plotted. […] After eight to ten days of drug treatment, peroxisome proliferation was measured using an antibody against the peroxisomal membrane protein, PEX14 and a FITC-labeled secondary antibody. Fold change (drug treated/control) is shown. In FIGS. 1C, 1D, and 1E, the * represents a statistically significant increase in a measurement between drug treated and control samples or a statistically significant decrease in a measurement between drug treated and drug treated samples in the presence of AA (p≦0.05) (Bars=SEM). This finding indicates dependence of the beneficial effect (i.e., elevated HbF levels) on induced mitochondrial biogenesis. Thus, the therapeutic effects observed in SCD may involve the pharmacological induction of mitochondrial biogenesis by SB or HU. […]

K562 cells [3] = assay: HbF-producing cell production (DAF staining); format: cell-based, human; settings: FIG. 1D
Procedure: as §1
K562 cells were suspended in 1.1 mL media and 240 μL of DAF [working solution 50 μL 2,7diaminofluorene (DAF) stock (50 μg DAF in 5 mL 90% glacial acetic acid), 50 μL 30% hydrogen peroxide, and 2.5 ml 200 mM Tris-HCl, pH 7.0]. DAF stained hemoglobinized cells were scored using a hemocytometer.
as §3
To determine whether the induction of mitochondrial biogenesis by SB or HU treatment was necessary for the induction of HbF-producing cell production, K562 cells were treated with SB or HU in the presence or absence of AA. […] After two to four days of drug treatment with or without AA, mitochondrial mass was measured using Mitotracker, a mitochondrial stain. Fold change (drug treated/control) is shown. […] After four days of drug treatment with or without AA, cells were stained with DAF. The relative number of cells producing HbF (DAF stained cells) were plotted. […] After eight to ten days of drug treatment, peroxisome proliferation was measured using an antibody against the peroxisomal membrane protein, PEX14 and a FITC-labeled secondary antibody. Fold change (drug treated/control) is shown. In FIGS. 1C, 1D, and 1E, the * represents a statistically significant increase in a measurement between drug treated and control samples or a statistically significant decrease in a measurement between drug treated and drug treated samples in the presence of AA (p≦0.05) (Bars=SEM). This finding indicates dependence of the beneficial effect (i.e., elevated HbF levels) on induced mitochondrial biogenesis. Thus, the therapeutic effects observed in SCD may involve the pharmacological induction of mitochondrial biogenesis by SB or HU.
K562 cells were treated for four days with HU in the presence or absence of SP600125 or PBS as a control (CON). […]

HbF = settings: Keefer et al., 2006; cited from earlier work
K562 cells [4] = assay: Flow cytometric analysis of peroxisome proliferation (PEX14); format: cell-based, human; settings: eight to ten days, FIG. 1E
Procedure: as §1, §2, §3
To determine whether the induction of mitochondrial biogenesis by SB or HU treatment was necessary for the induction of HbF-producing cell production, K562 cells were treated with SB or HU in the presence or absence of AA. […] After two to four days of drug treatment with or without AA, mitochondrial mass was measured using Mitotracker, a mitochondrial stain. Fold change (drug treated/control) is shown. […] After four days of drug treatment with or without AA, cells were stained with DAF. […] After eight to ten days of drug treatment, peroxisome proliferation was measured using an antibody against the peroxisomal membrane protein, PEX14 and a FITC-labeled secondary antibody. […]

XALD fibroblasts [5] = assay: Fatty acid β-oxidation of 1-14C-labeled fatty acids; format: cell-based, human
Procedure: Fatty acid β-oxidation activity in XALD fibroblasts was determined by measuring their capacity to degrade 1-^14C-labeled fatty acids to water-soluble products as described in McGuiness et al., 2003.
4PBA-induced peroxisomal VLCFA β-oxidation (degradation) is dependent on mitochondrial long chain fatty acid (LCFA) β-oxidation (McGuinness et al., 2003). […] Antimycin A (AA) is a cytochrome c reductase inhibitor that inhibits the mitochondrial electron transport chain, mitochondrial biogenesis, and thus, cellular respiration (Ranganathan et al., 2009). […] XALD fibroblasts were treated with 4PBA in the presence or absence of antimycin A (AA), a cytochrome c reductase inhibitor, for five days and β-oxidation levels of LCFA (C16:0) and VLCFA (C24:0) levels were measured.

[6] = K562 cells, 1.2 mM SB or 100 μM HU

Molecule: Cn1cnc(N)c2ncnc1-2 [3-methyladenine]
- increase in FL-SMN transcript levels in SFN-treated spinal muscular atrophy fibroblasts (FL-SMN mRNA): prevented

Molecule: COC(=O)[C@@H](N)CCCNC(=N)N[N+](=O)[O-] [L-NAME]
- Inhibits Mitochondrial Biogenesis? (XALD fibroblasts [1]): no

Molecule: COc1cccc(-c2cc(=O)c3ccccc3o2)c1N [PD98059]
- Inhibits Mitochondrial Biogenesis? (XALD fibroblasts [1]): no

Molecule: Cn1cc(C2=C(c3c4n(c5ccccc35)CCC(CN)C4)C(=O)NC2=O)c2ccccc21 (stereo not drawn) [RO-21-8425]
- Inhibits Mitochondrial Biogenesis? (XALD fibroblasts [1]): no

Molecule: C[S+]([O-])c1ccc(-c2nc(-c3ccncc3)c(-c3ccc(F)cc3)[nH]2)cc1 (stereo not drawn) [SB203580]
- Inhibits Mitochondrial Biogenesis? (XALD fibroblasts [1]): no

Molecule: CCCC(=O)[O-].[Na+] [SB, Sodium butyrate]
- mitochondrial mass (K562 cells [2]; [6]): significantly increased
- number of HbF-producing cells (K562 cells [3]; [6]): significantly increased
- HbF levels (HbF): increased
- peroxisomal proliferation (K562 cells [4]): significantly increased

Molecule: N#CC(=C(/N)Sc1ccccc1N)/C(C#N)=C(\N)Sc1ccccc1N [U0126]
- Inhibits Mitochondrial Biogenesis? (XALD fibroblasts [1]): no

Molecule: COc1cc(C[C@H]2C(=O)OC[C@@H]2Cc2ccc(OC)c(OC)c2)ccc1O [arctigenin]
- Inhibits Mitochondrial Biogenesis? (XALD fibroblasts [1]): no

Molecule: c1cc(-c2cnn3cc(-c4ccc(OCCN5CCCCC5)cc4)cnc23)ccn1 [compound C]
- Inhibits Mitochondrial Biogenesis? (XALD fibroblasts [1]): no

Molecule: CC(NC(=O)c1ccccc1/N=C/c1c(O)ccc2ccccc12)c1ccccc1 (stereo not drawn) [sirtinol]
- increase in FL-SMN transcript levels in SFN-treated spinal muscular atrophy fibroblasts (FL-SMN mRNA): prevented

Molecule: Antimycin A [AA]
- induction of mitochondrial biogenesis by SB or HU treatment (K562 cells [2]; effect of co-treatment with AA): significantly inhibited
- induction of HbF-producing cells by SB or HU treatment (K562 cells [3]; effect of co-treatment with AA): significantly inhibited
- induction of peroxisomal VLCFA β-oxidation (XALD fibroblasts [5]; 4PBA in the presence of AA): blocked
- 4PBA-induction of mitochondrial LCFA β-oxidation (XALD fibroblasts [5]; in the presence of AA (10 ng/mL)): inhibited
- increase in FL-SMN transcript levels in SFN-treated spinal muscular atrophy fibroblasts (FL-SMN mRNA): prevented
